Assay [1] concerns the target T1, Dihydrofolate reductase (Mycobacterium avium, UniProt O30463).
T1 sequence (O30463 whole entry): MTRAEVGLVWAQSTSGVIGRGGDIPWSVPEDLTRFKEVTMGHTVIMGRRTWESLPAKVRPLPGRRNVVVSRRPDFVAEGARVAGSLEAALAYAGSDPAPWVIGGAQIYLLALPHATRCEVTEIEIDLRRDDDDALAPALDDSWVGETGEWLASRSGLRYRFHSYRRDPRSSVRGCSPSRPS
As to the kind of experiment: Inhibitory concentration against Dihydrofolate reductase from Mycobacterium avium (Mycobacterium avium).

The target of assay [2] is T2, Dihydrofolate reductase (Rattus norvegicus, UniProt Q920D2).
T2 sequence (Q920D2 whole entry): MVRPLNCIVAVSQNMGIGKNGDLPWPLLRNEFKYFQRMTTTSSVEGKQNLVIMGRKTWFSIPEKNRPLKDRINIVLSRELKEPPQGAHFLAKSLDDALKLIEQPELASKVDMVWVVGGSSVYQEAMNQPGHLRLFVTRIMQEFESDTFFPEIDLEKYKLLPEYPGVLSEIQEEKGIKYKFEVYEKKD
As to the kind of experiment: Inhibitory concentration against Dihydrofolate reductase from rat liver.

Assay [3] concerns the target T3, Dihydrofolate reductase (Pneumocystis carinii, UniProt P16184).
T3 sequence (P16184 whole entry): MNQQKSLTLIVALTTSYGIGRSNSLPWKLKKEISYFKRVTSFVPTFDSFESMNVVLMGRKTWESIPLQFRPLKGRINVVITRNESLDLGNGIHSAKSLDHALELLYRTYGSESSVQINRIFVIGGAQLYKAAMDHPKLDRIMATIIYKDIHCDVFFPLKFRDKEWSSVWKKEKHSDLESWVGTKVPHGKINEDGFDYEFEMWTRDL
As to the kind of experiment: Inhibition of Dihydrofolate reductase from Pneumocystis carinii (Pneumocystis carinii).

Assay [4] has as its target T4, Dihydrofolate reductase (Pneumocystis carinii) (UniProt P16184).
T4 sequence (whole entry): T3 sequence (P16184 whole entry)
As to the kind of experiment: Inhibition against Dihydrofolate reductase from Pneumocystis carinii (Pneumocystis carinii) at 12 uM of compound.

Assay [5] is described as follows: Selectivity ratio (IC50rlDHFR)/(IC50 tgDHFR).
Assay [6] is described as follows: Selectivity ratio (IC50 rlDHFR)/(IC50 maDHFR).
The target in assay [7] is T5, Bifunctional dihydrofolate reductase-thymidylate synthase (Toxoplasma gondii, UniProt Q07422).
T5 sequence (Q07422 whole entry): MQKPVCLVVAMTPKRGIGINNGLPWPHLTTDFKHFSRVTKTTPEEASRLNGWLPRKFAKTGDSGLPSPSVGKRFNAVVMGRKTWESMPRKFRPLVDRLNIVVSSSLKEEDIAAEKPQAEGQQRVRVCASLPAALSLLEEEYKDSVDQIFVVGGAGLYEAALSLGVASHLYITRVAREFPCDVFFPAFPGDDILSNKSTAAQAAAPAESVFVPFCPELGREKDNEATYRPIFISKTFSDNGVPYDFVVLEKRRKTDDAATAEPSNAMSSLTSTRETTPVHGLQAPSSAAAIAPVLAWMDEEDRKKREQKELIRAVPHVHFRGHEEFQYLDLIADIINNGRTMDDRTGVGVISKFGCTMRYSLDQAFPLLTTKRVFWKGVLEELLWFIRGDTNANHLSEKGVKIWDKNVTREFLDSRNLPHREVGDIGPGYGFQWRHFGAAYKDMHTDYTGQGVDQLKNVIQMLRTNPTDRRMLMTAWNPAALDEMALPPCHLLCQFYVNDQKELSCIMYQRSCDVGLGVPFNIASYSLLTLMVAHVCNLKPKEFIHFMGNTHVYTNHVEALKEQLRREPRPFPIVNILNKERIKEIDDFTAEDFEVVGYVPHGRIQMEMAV
As to the kind of experiment: Inhibitory concentration against Dihydrofolate reductase from Toxoplasma gondii (Toxoplasma gondii).

Assay [8] in a line: Selectivity ratio [(IC50 rlDHFR)/(IC50 pcDHFR).

A word on the IC50: it is the concentration that gives 50% inhibition. For the molecule `Cc1c(Sc2cccc(Cl)c2)[nH]c2nc(N)nc(N)c12`, the figures for the IC50 on Dihydrofolate reductase [1] and against Dihydrofolate reductase [2] were 4.4 µM and 47.7 µM, respectively.

Turning to `Cc1c(Sc2ccc(Cl)cc2)[nH]c2nc(N)nc(N)c12`, the IC50 against Dihydrofolate reductase [1] turned out to be 4 µM; on Dihydrofolate reductase [3], 16.7 µM; against Dihydrofolate reductase [2] it was 19 µM.

By inhibition is commonly meant the relative decrease from the control value, in per cent. In the case of `Cc1c(Sc2ccc(Cl)cc2Cl)[nH]c2nc(N)nc(N)c12`, the inhibition in assay [4] stood at 14%. The results for the Selectivity ratio in assay [5] and in assay [6] were 5.5 and 5.79, respectively. The IC50 at Dihydrofolate reductase [1] is 19 µM; against Dihydrofolate reductase [3] it was above 12 µM; on Dihydrofolate reductase [2] it was 110 µM; in assay [7], 20 µM.

For the molecule `COc1ccc(Sc2[nH]c3nc(N)nc(N)c3c2C)cc1`, the half-inhibitory concentration (IC50) worked out at 0.6 µM against Dihydrofolate reductase [1], 112 µM against Dihydrofolate reductase [3] and 31.3 µM against Dihydrofolate reductase [2].

At Dihydrofolate reductase [1], `COc1cc(CC2CN=C(N)N=C2N)cc(OC)c1OC` (centres undefined) came in with an IC50 of 0.3 µM.

Regarding `COc1ccccc1Sc1[nH]c2nc(N)nc(N)c2c1C`, the figures for the IC50 at Dihydrofolate reductase [1], against Dihydrofolate reductase [3] and on Dihydrofolate reductase [2] were 0.3 µM, 22 µM and 2.32 µM, respectively.

Regarding `Cc1c(Sc2cccc3ccccc23)[nH]c2nc(N)nc(N)c12`, the Selectivity ratio in assay [5] was determined as 27.9; in assay [6], 6.92; in assay [8] it was 0.12. For the same molecule, the concentration for half-maximal inhibition (IC50) against Dihydrofolate reductase [1] stood at 0.7 µM; in assay [7], 0.16 µM.

In the case of `COc1ccc(OC)c(Sc2[nH]c3nc(N)nc(N)c3c2C)c1`, the IC50 against Dihydrofolate reductase [2] was 7.8 µM; in assay [7], 0.17 µM.

Turning to `COc1cccc(Sc2[nH]c3nc(N)nc(N)c3c2C)c1`, the IC50 is 1.37 µM on Dihydrofolate reductase [1], 60.2 µM at Dihydrofolate reductase [3] and 2.06 µM at Dihydrofolate reductase [2].

The values above are taken from ChEMBL document CHEMBL1148359, “Design, synthesis, and biological evaluation of 2,4-diamino-5-methyl-6-substituted-pyrrolo[2,3-d]pyrimidines as dihydrofolate reductase inhibitors” (J Med Chem, 2004).
